# According to PMC9694544, “Conteltinib (CT-707) in patients with advanced ALK-positive non-small cell lung cancer: a multicenter, open-label, first-in-human phase 1 study” (BMC Medicine, 2022):
# Test system: patients with ALK-positive NSCLC
# Assay: Phase 1 safety assessment (TRAEs by CTCAE 4.03, DLT, MTD, RP2D)
# Format: in vivo, human
# Procedure: In the dose-escalation phase, the dose was escalated sequentially from a low to a high level with a 3 + 3 dose-escalation scheme based on the modified Fibonacci method. The starting dose for conteltinib was 50 mg orally quaque die (QD). Dose escalation proceeded to the next six cohorts of 100 mg, 200 mg, 300 mg, 450 mg, 600 mg, and 800 mg QD. For each dose, there was a PK lead-in phase where a single dose was given 7 days before cycle 1 day 1. Then, each dose was taken continuously in a 28-day cycle. The first cycle was for dose-limiting toxicity (DLT) investigation. When one of three patients experienced a DLT in a dose cohort, three additional patients were enrolled in the same dose cohort to assess the dose level in a total of six patients. All patients received conteltinib until disease progression, unacceptable toxicity, or withdrawal of consent. Patients received follow-up safety assessments for 30 days (±7 days) after the last conteltinib dose.
# In the dose-expansion phase, each dose was taken continuously in a 28-day cycle. At the end of each cycle, a safety evaluation was conducted. If patients met the criteria to enter the next cycle, treatment with conteltinib was continued for subsequent cycles. All patients received conteltinib until disease progression, unacceptable toxicity, or withdrawal of consent. Patients received follow-up safety assessments for 30 days (±7 days) after the last dose of conteltinib.
# The safety of conteltinib was assessed in safety set (SS) which was based on the National Cancer Institute Common Terminology Criteria for Adverse Events (CTCAE) version 4.03, laboratory tests, vital signs, ECG, and clinical observations. […] Adverse events (AEs) were judged to be treatment-related or not by investigators.
# DLTs were AEs occurring in the first cycle of treatment (28 days) that were attributed to conteltinib, and the criteria were grade 4 neutropenia lasting ≥ 7 days, febrile neutropenia, grade 3 thrombocytopenia, grade 3 non-hematologic toxicity, and any conteltinib-related toxicity resulting in treatment delay > 2 weeks or discontinuation of conteltinib treatment at the assigned dose level. Besides, grade 3 nausea, vomiting, or diarrhea for ≥ 3 days or grade 4 nausea, vomiting, or diarrhea of any duration was considered as a DLT. The MTD was defined as the dose of conteltinib that would be closest to but not higher than a 33% probability of a DLT.
smiles,measurement,setting,value
COc1cc(N2CCC(N3CCN(C)CC3)CC2)ccc1Nc1nc2c(c(Nc3ccccc3S(=O)(=O)NC(C)C)n1)CCN2 [Conteltinib],TRAE Hypercholesterolemia,"450 mg QD (n=14), Grade 1–2",1 (7.1) n (%)
same,TRAE Hyperglycemia,"450 mg QD (n=14), Grade 1–2",1 (7.1) n (%)
same,TRAE Hypertriglyceridemia,"450 mg QD (n=14), Grade 1–2",2 (14.3) n (%)
same,TRAE Hyperuricemia,"450 mg QD (n=14), Grade 1–2",3 (21.4) n (%)
same,TRAE Hypoalbuminemia,"450 mg QD (n=14), Grade 1–2",2 (14.3) n (%)
same,TRAE Nausea,"450 mg QD (n=14), Grade 1–2",6 (42.9) n (%)
same,TRAE Proteinuria,"450 mg QD (n=14), Grade 1–2",1 (7.1) n (%)
same,TRAE Serum creatinine elevated,"450 mg QD (n=14), Grade 1–2",10 (71.4) n (%)
same,TRAE Vomiting,"450 mg QD (n=14), Grade 1–2",6 (42.9) n (%)
same,TRAE Weight loss,"450 mg QD (n=14), Grade 1–2",3 (21.4) n (%)
same,TRAE γ-GGT elevated,"450 mg QD (n=14), Grade 1–2",3 (21.4) n (%)
same,Patients with any TRAE,"450 mg QD (n=14), Grade ≥ 3",3 (21.4) n (%)
same,TRAE ALT elevated,"450 mg QD (n=14), Grade ≥ 3",0 (0.0) n (%)
same,TRAE AST elevated,"450 mg QD (n=14), Grade ≥ 3",0 (0.0) n (%)
same,TRAE Abdominal pain,"450 mg QD (n=14), Grade ≥ 3",0 (0.0) n (%)
same,TRAE Abdominal pain upper,"450 mg QD (n=14), Grade ≥ 3",0 (0.0) n (%)
same,TRAE Appetite decreased,"450 mg QD (n=14), Grade ≥ 3",0 (0.0) n (%)
same,TRAE Conjugated bilirubin elevated,"450 mg QD (n=14), Grade ≥ 3",0 (0.0) n (%)
same,TRAE Diarrhea,"450 mg QD (n=14), Grade ≥ 3",0 (0.0) n (%)
same,TRAE Hypercholesterolemia,"450 mg QD (n=14), Grade ≥ 3",0 (0.0) n (%)
same,TRAE Hyperglycemia,"450 mg QD (n=14), Grade ≥ 3",0 (0.0) n (%)
same,TRAE Hypertriglyceridemia,"450 mg QD (n=14), Grade ≥ 3",0 (0.0) n (%)
same,TRAE Hyperuricemia,"450 mg QD (n=14), Grade ≥ 3",0 (0.0) n (%)
same,TRAE Hypoalbuminemia,"450 mg QD (n=14), Grade ≥ 3",0 (0.0) n (%)
same,TRAE Nausea,"450 mg QD (n=14), Grade ≥ 3",0 (0.0) n (%)
same,TRAE Proteinuria,"450 mg QD (n=14), Grade ≥ 3",0 (0.0) n (%)
same,TRAE Serum creatinine elevated,"450 mg QD (n=14), Grade ≥ 3",0 (0.0) n (%)
same,TRAE Vomiting,"450 mg QD (n=14), Grade ≥ 3",0 (0.0) n (%)
same,TRAE Weight loss,"450 mg QD (n=14), Grade ≥ 3",0 (0.0) n (%)
same,TRAE γ-GGT elevated,"450 mg QD (n=14), Grade ≥ 3",3 (21.4) n (%)
same,Patients with any TRAE,"600 mg QD (n=18), Grade 1–2",18 (100) n (%)
same,TRAE ALT elevated,"600 mg QD (n=18), Grade 1–2",7 (38.9) n (%)
same,TRAE AST elevated,"600 mg QD (n=18), Grade 1–2",8 (44.4) n (%)
same,TRAE Abdominal pain,"600 mg QD (n=18), Grade 1–2",7 (38.9) n (%)
same,TRAE Abdominal pain upper,"600 mg QD (n=18), Grade 1–2",2 (11.1) n (%)
same,TRAE Appetite decreased,"600 mg QD (n=18), Grade 1–2",7 (38.9) n (%)
same,TRAE Conjugated bilirubin elevated,"600 mg QD (n=18), Grade 1–2",2 (11.1) n (%)
same,TRAE Diarrhea,"600 mg QD (n=18), Grade 1–2",16 (88.9) n (%)
same,TRAE Hypercholesterolemia,"600 mg QD (n=18), Grade 1–2",4 (22.2) n (%)
same,TRAE Hyperglycemia,"600 mg QD (n=18), Grade 1–2",6 (33.3) n (%)
same,TRAE Hypertriglyceridemia,"600 mg QD (n=18), Grade 1–2",8 (44.4) n (%)
same,TRAE Hyperuricemia,"600 mg QD (n=18), Grade 1–2",10 (55.6) n (%)
same,TRAE Hypoalbuminemia,"600 mg QD (n=18), Grade 1–2",3 (16.7) n (%)
same,TRAE Nausea,"600 mg QD (n=18), Grade 1–2",9 (50.0) n (%)
same,TRAE Proteinuria,"600 mg QD (n=18), Grade 1–2",8 (44.4) n (%)
same,TRAE Serum creatinine elevated,"600 mg QD (n=18), Grade 1–2",8 (44.4) n (%)
same,TRAE Vomiting,"600 mg QD (n=18), Grade 1–2",11 (61.1) n (%)
same,TRAE Weight loss,"600 mg QD (n=18), Grade 1–2",8 (44.4) n (%)
same,TRAE γ-GGT elevated,"600 mg QD (n=18), Grade 1–2",8 (44.4) n (%)
same,Patients with any TRAE,"600 mg QD (n=18), Grade ≥ 3",5 (27.8) n (%)
same,TRAE ALT elevated,"600 mg QD (n=18), Grade ≥ 3",0 (0.0) n (%)
same,TRAE AST elevated,"600 mg QD (n=18), Grade ≥ 3",0 (0.0) n (%)
same,TRAE Abdominal pain,"600 mg QD (n=18), Grade ≥ 3",0 (0.0) n (%)
same,TRAE Abdominal pain upper,"600 mg QD (n=18), Grade ≥ 3",0 (0.0) n (%)
same,TRAE Appetite decreased,"600 mg QD (n=18), Grade ≥ 3",0 (0.0) n (%)
same,TRAE Conjugated bilirubin elevated,"600 mg QD (n=18), Grade ≥ 3",0 (0.0) n (%)
same,TRAE Diarrhea,"600 mg QD (n=18), Grade ≥ 3",2 (11.1) n (%)
same,TRAE Hypercholesterolemia,"600 mg QD (n=18), Grade ≥ 3",0 (0.0) n (%)
same,TRAE Hyperglycemia,"600 mg QD (n=18), Grade ≥ 3",0 (0.0) n (%)
same,TRAE Hypertriglyceridemia,"600 mg QD (n=18), Grade ≥ 3",0 (0.0) n (%)
same,TRAE Hyperuricemia,"600 mg QD (n=18), Grade ≥ 3",0 (0.0) n (%)
same,TRAE Hypoalbuminemia,"600 mg QD (n=18), Grade ≥ 3",0 (0.0) n (%)
same,TRAE Nausea,"600 mg QD (n=18), Grade ≥ 3",0 (0.0) n (%)
same,TRAE Proteinuria,"600 mg QD (n=18), Grade ≥ 3",0 (0.0) n (%)
same,TRAE Serum creatinine elevated,"600 mg QD (n=18), Grade ≥ 3",1 (5.6) n (%)
same,TRAE Vomiting,"600 mg QD (n=18), Grade ≥ 3",0 (0.0) n (%)
same,TRAE Weight loss,"600 mg QD (n=18), Grade ≥ 3",0 (0.0) n (%)
same,TRAE γ-GGT elevated,"600 mg QD (n=18), Grade ≥ 3",1 (5.6) n (%)
same,DLT events,"600 mg QD, cycle 1, dose-escalation phase, grade 3 serum creatinine elevated",One
same,Patients with any TRAE,"800 mg QD (n=4), Grade 1–2",3 (75.0) n (%)
same,TRAE ALT elevated,"800 mg QD (n=4), Grade 1–2",0 (0.0) n (%)
same,TRAE AST elevated,"800 mg QD (n=4), Grade 1–2",1 (25.0) n (%)
same,TRAE Abdominal pain,"800 mg QD (n=4), Grade 1–2",3 (75.0) n (%)
same,TRAE Abdominal pain upper,"800 mg QD (n=4), Grade 1–2",0 (0.0) n (%)
same,TRAE Appetite decreased,"800 mg QD (n=4), Grade 1–2",1 (25.0) n (%)
same,TRAE Conjugated bilirubin elevated,"800 mg QD (n=4), Grade 1–2",0 (0.0) n (%)
same,TRAE Diarrhea,"800 mg QD (n=4), Grade 1–2",3 (75.0) n (%)
same,TRAE Hypercholesterolemia,"800 mg QD (n=4), Grade 1–2",1 (25.0) n (%)
same,TRAE Hyperglycemia,"800 mg QD (n=4), Grade 1–2",1 (25.0) n (%)
same,TRAE Hypertriglyceridemia,"800 mg QD (n=4), Grade 1–2",2 (50.0) n (%)
same,TRAE Hyperuricemia,"800 mg QD (n=4), Grade 1–2",3 (75.0) n (%)
same,TRAE Hypoalbuminemia,"800 mg QD (n=4), Grade 1–2",1 (25.0) n (%)
same,TRAE Nausea,"800 mg QD (n=4), Grade 1–2",1 (25.0) n (%)
same,TRAE Proteinuria,"800 mg QD (n=4), Grade 1–2",2 (50.0) n (%)
same,TRAE Serum creatinine elevated,"800 mg QD (n=4), Grade 1–2",2 (50.0) n (%)
same,TRAE Vomiting,"800 mg QD (n=4), Grade 1–2",2 (50.0) n (%)
same,TRAE Weight loss,"800 mg QD (n=4), Grade 1–2",2 (50.0) n (%)
same,TRAE γ-GGT elevated,"800 mg QD (n=4), Grade 1–2",2 (50.0) n (%)
same,Patients with any TRAE,"800 mg QD (n=4), Grade ≥ 3",0 (0.0) n (%)
same,TRAE ALT elevated,"800 mg QD (n=4), Grade ≥ 3",0 (0.0) n (%)
same,TRAE AST elevated,"800 mg QD (n=4), Grade ≥ 3",0 (0.0) n (%)
same,TRAE Abdominal pain,"800 mg QD (n=4), Grade ≥ 3",0 (0.0) n (%)
same,TRAE Abdominal pain upper,"800 mg QD (n=4), Grade ≥ 3",0 (0.0) n (%)
same,TRAE Appetite decreased,"800 mg QD (n=4), Grade ≥ 3",0 (0.0) n (%)
same,TRAE Conjugated bilirubin elevated,"800 mg QD (n=4), Grade ≥ 3",0 (0.0) n (%)
same,TRAE Diarrhea,"800 mg QD (n=4), Grade ≥ 3",0 (0.0) n (%)
same,TRAE Hypercholesterolemia,"800 mg QD (n=4), Grade ≥ 3",0 (0.0) n (%)
same,TRAE Hyperglycemia,"800 mg QD (n=4), Grade ≥ 3",0 (0.0) n (%)
